Patent US9174965B2, “Pyrimidinylpiperidinyloxypyridone analogues as GPR119 modulators” (BRISTOL-MYERS SQUIBB COMPANY, priority 2012, dated 2015)
In brackets after ≈: the same amount, converted by molar mass.

Assays:
in vitro = conditions: human, microsomes, pH 7.4
Description: (§1) Metabolic Stability in Liver Microsomes Test
(§2) The test compound was received as a 3.5 mM stock solution in 100 percent dimethyl sulfoxide (“DMSO”, Sigma Aldritch). The compound solution was diluted to create a 50 μM acetonitrile (“ACN”, Sigma Aldritch) solution containing 1.4% DMSO, which is then used as a 100-fold stock for incubation with microsomes. The test compound, β-nicotinamide adenine dinucleotide phosphate (“NADPH”, AppliChem Inc.) and liver microsome solutions are combined for incubation in three steps:
(§3) 1) 450 μl of liver microsome suspension, protein concentration of 1.1 mg/ml in 100 mM sodium (+)/phosphate (“NaPi”, pH 7.4, Sigma Aldritch) buffer, 5 mM magnesium chloride (“MgCl2, Sigma Aldritch) buffer, is pre-warmed at 37° C.;
(§4) 2) 5 μl of 50 μM test compound (98.6% ACN, 1.4% DMSO) is added to the same tube and pre-incubated at 37° C. for 5 minutes; and
(§5) 3) The reaction is initiated by the addition of 50 μl of pre-warmed 10 mM NADPH solution in 100 mM NaPi, pH 7.4.
(§6) Reaction components are mixed well and then 65 μl are immediately transferred into 130 μl quench/stop solution (zero-time point, T0). The reactions are incubated at 37° C. for 5, 10, 15, 30 and 45 minutes and at each time-point a 65 μl aliquot is transferred into 130 μl of quench solution. ACN containing Internal Standard (100 ng/ml), is used as the quench solution to terminate metabolic reactions. The quenched mixtures are centrifuged at 1500 rpm (˜500×g) in an Allegra X-12 centrifuge, SX4750 rotor (Beckman Coulter Inc., Fullerton, Calif.) for fifteen minutes to pellet denatured microsomes. A volume of 90 μl of supernatant extract, containing the mixture of parent compound and its metabolites, is then transferred to a separate 96-well plate for LC/MS-MS analysis to determine the percent of parent compound that is remaining in the mixture. Peak integration is performed on all samples using the Hepatic Clearance Calculator of QuickCalc by Gubbs, Inc. The percent remaining calculation is performed by comparing the LC-MS/MS peak areas from the samples at each time point to those from the T0 samples for each compound. T1/2 values are calculated from linear regression of the LN (% Remaining) over time, and the slope of that regression (Kel) is used to calculate T1/2, using the following equation: T1/2=−0.693/Kel.

male C57BL/6J mice = experiment: Mouse oral glucose tolerance test; type: in vivo; conditions: for Glucose Lowering: at the minimally efficacious dose, plasma glucose AUC in oGTT; for Minimally efficacious Dose: oGTT in C57BL/6J mice
Description: Mouse Oral Glucose Tolerance Test
Twenty four (24) male C57BL/6J mice (8-10 weeks old, average weight 28 g) were randomized into 4 groups (1 mouse/cage) of 6 mice per group based on fed plasma glucose and body weight. Prior to initiating the study, mice were fasted overnight and the next morning they were weighed and placed in the experimental lab. After 30 min in the environment, the mice were bled via tail tip at −60 min and immediately given their first oral administration of vehicle (40% PEG400, 10% Cremophor EL, 50% water) or compound solutions (5 ml/kg). At time 0 the mice were bled and given 50% glucose (2 g/kg) to initiate the oral glucose tolerance test (oGTT). The mice were bled 30, 60 and 120 min after the glucose load. Blood samples were drawn into potassium EDTA, placed on ice during the study and subsequently centrifuged for 10 min at 3000 rpm at 4° C. Plasma samples were diluted 11-fold for glucose analysis in the COBAS MIRA® System (Roche Diagnostics). Area under the curve was calculated from the plasma glucose time course data using the trapezoid rule with fasting plasma glucose as the baseline (GraphPad Prism Software). The statistical significance of the changes in the glucose AUCs resulting from the different treatments was determined by one-way ANOVA followed by Dunnett's test using the vehicle group as the control (JMP software, release 5.1.2).
Find below in Table 7 data for compared compounds (See WO 2009/012275 A1).

Aqueous solubility assay = type: physicochemical; conditions: aqueous buffer, thermodynamic from solid; pH 6.5 phosphate buffer, room temperature, 18-24 h
Description: Approximately 0.75 mg of accurately weighed test compound was added to 1 mL of a pH 6.5 phosphate buffer (50 mM Potassium Phosphate Buffer) to make solutions with a nominal targeted concentration of 1 mM. The vial was then rotated on an orbital shaker at room temperature for 18-24 h. After equilibration time had been met, the test solution was centrifuge filtered through a 0.45 um membrane (Millipore Ultrafree Centrifugal Filters, Durapore PVDF 0.45 um). The filtrate was then analyzed by an Agilent HP1100 HPLC/UV at multiple wavelengths using diode array detection (e.g. 210, 230, 254 and 280 nm) against a previously generated calibration curve to determine compound concentration.
Find below in Table 9 data for compared compounds (See WO 2011/127106 A1).

[1] = Metabolic stability in liver microsomes test; conditions: human, pH 7.4
Description: as §1, §2, §3, §4, §5, §6

Compound | half-life at 0.5 µM (in vitro) | Glucose Lowering (male C57BL/6J mice) | Minimally efficacious Dose (male C57BL/6J mice) | solubility (Aqueous solubility assay) | half-life at 0.5 µM [1]
Cc1nc(-n2cc(Cl)c(OC3CCN(c4ncc(Cl)cn4)CC3)cc2=O)ccc1N1CCC(O)C1=O (centres unmarked) [Example 1, 5-chloro-4-((1-(5-chloropyrimidin-2-yl)piperidin-4-yl)oxy)-5′-(3-hydroxy-2-oxopyrrolidin-1-yl)-6′-methyl-2H-[1,2′-bipyridin]-2-one] | 1.57 h | −36% | 0.03 mg/kg | 4 µg/mL (≈ 7.53 µM) | –
CCCc1cnc(N2CCC(Oc3ccn(-c4ccc(N5CCC(O)C5=O)c(C)n4)c(=O)c3)CC2)nc1 (centres unmarked) [Example 5, 5′-(3-hydroxy-2-oxopyrrolidin-1-yl)-6′-methyl-4-((1-(5-propylpyrimidin-2-yl)piperidin-4-yl)oxy)-2H-[1,2′-bipyridin]-2-one] | 1.27 h | −21% | 0.1 mg/kg | 3 µg/mL (≈ 5.95 µM) | –
Cc1nc(-n2ccc(OC3CCN(c4ncc(Cl)cn4)CC3)cc2=O)ccc1N1CCC(O)C1=O (centres unmarked) [Example 6, 4-((1-(5-chloropyrimidin-2-yl)piperidin-4-yl)oxy)-5′-(3-hydroxy-2-oxopyrrolidin-1-yl)-6′-methyl-2H-[1,2′-bipyridin]-2-one] | 1.68 h | – | – | 7 µg/mL (≈ 14.1 µM) | –
CCCc1cnc(N2CCC(Oc3cc(=O)n(-c4ccc(N5CCC(O)C5=O)c(C)n4)cc3Cl)CC2)nc1 (centres unmarked) [Example 2, 5-chloro-5′-(3-hydroxy-2-oxopyrrolidin-1-yl)-6′-methyl-4-((1-(5-propylpyrimidin-2-yl)piperidin-4-yl)oxy)-2H-[1,2′-bipyridin]-2-one] | – | −19% | 0.03 mg/kg | 1 µg/mL (≈ 1.86 µM) | 2 h
